From publication PMC8167934 (Cancer letters, 2021)

Legend:
[1] = target: thioesterase (TE) domain of FASN (Homo sapiens, UniProt P49327); assay: TE activity assay with recombinant TE; conditions: recombinant TE 500 nM
breast cancer patients = assay: Retrospective EMR analysis of overall survival of breast cancer patients; assay type: in vivo, human
MCF7/FASN cells = assay: Colony formation assay, MCF7 cells with ectopic FASN over-expression; assay type: cell-based, human; conditions: ectopic FASN over-expression vs MCF7/Vec
M3K/Sh cells = assay: Colony formation assay, MCF7/AdVp3000 cells with FASN knockdown; assay type: cell-based, human; conditions: FASN knockdown vs M3K/Scr
PARP1 expression = assay: Western blot analysis of PARP1 expression; assay type: cell-based, human; conditions: MCF7, T47D, MDA-MB-231 and MDA-MB-468 cells, different concentrations
[2] = test system: NHEJ activity in MCF7 cells; assay: Host cell reactivation assay of NHEJ activity, MCF7; assay type: cell-based, human
[3] = test system: NHEJ activity in MDA-MB-468 cells; assay: Host cell reactivation assay of NHEJ activity, MDA-MB-468; assay type: cell-based, human; conditions: 10 µM twice a day for three days
[4] = test system: homologous recombination activity; assay: Host cell reactivation assay of homologous recombination activity; assay type: cell-based, human; conditions: 10 µM twice a day for three days
γ-H2AX in MCF7 cells = assay: γ-H2AX level; assay type: cell-based, human
[5] = test system: γ-H2AX in MDA-MB-468 cells; assay: γ-H2AX level; assay type: cell-based, human
MCF7 cells [6] = assay: Flow cytometry of apoptosis and cell cycle, MCF7; assay type: cell-based, human
MDA-MB-468 cells [7] = assay: Flow cytometry of apoptosis and cell cycle, MDA-MB-468; assay type: cell-based, human
MCF7 cells [8] = assay: Colony formation combination study with doxorubicin; assay type: cell-based, human; conditions: combination with doxorubicin at potency ratios 50/50, 25/75, 75/25
MDA-MB-468 cells [9] = assay: as above; assay type: cell-based, human; conditions: combination with doxorubicin at potency ratios 50/50, 25/75, 75/25
MCF7 cells [10] = assay: Colony formation combination with ionizing radiation, MCF7; assay type: cell-based, human; conditions: pre-treated with 10 µM once a day for 3 days
MDA-MB-468 cells [11] = assay: Colony formation combination with ionizing radiation, MDA-MB-468; assay type: cell-based, human; conditions: pre-treated with 10 µM once a day for 3 days
TNBC patients = conditions: high dose omeprazole added to neoadjuvant TNBC treatment; cited from earlier work
db/+ and db/db mice = conditions: chronic use, cited from earlier work
[12] = esomeprazole users vs omeprazole users, pairwise comparison
[13] = users of the PPI vs non-PPI users
[14] = 10–20 mg users vs non-PPI users

Sequence of thioesterase (TE) domain of FASN (P49327 2207-2511 limits assumed): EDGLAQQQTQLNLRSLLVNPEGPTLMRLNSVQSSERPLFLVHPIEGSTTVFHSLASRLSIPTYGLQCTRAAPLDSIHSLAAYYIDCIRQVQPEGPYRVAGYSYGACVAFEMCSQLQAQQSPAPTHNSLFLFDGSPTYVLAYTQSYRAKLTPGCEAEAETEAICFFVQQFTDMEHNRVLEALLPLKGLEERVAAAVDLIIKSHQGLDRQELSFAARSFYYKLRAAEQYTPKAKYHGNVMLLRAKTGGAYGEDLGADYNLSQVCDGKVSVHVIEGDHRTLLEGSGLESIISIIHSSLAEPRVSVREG

Cc1c(OCC(F)(F)F)ccnc1C[S@@+]([O-])c1nc2ccccc2[nH]1 [R-lansoprazole, dexlansoprazole]
Inhibition of TE activity of FASN (Ki), enantiomer comparison [1]: significantly more effective than the S-lansoprazole

COc1ccc2nc([S@@+]([O-])Cc3ncc(C)c(OC)c3C)[nH]c2c1 [esomeprazole]
Overall survival, multivariant HR (breast cancer patients; 20 mg users vs non-PPI users): 0.73 | Overall survival, univariant HR (breast cancer patients; 20 mg users vs non-PPI users): 1.0 | Overall survival, multivariant HR (breast cancer patients; 40 mg users vs non-PPI users): 0.33 | Overall survival, univariant HR (breast cancer patients; 40 mg users vs non-PPI users): 0.3 | Overall survival, multivariate HR (breast cancer patients; [12]): 1.64 | Overall survival, univariate HR (breast cancer patients; [12]): 1.62 | Overall survival, univariate HR (breast cancer patients; [13]): 0.52

Cc1c(OCC(F)(F)F)ccnc1C[S+]([O-])c1nc2ccccc2[nH]1 (centres unmarked) [lansoprazole]
Lansoprazole resistance (relative resistance factor) (MCF7/FASN cells): increased | Lansoprazole resistance (relative resistance factor) (M3K/Sh cells): reduced | PARP1 expression (PARP1 expression): dose-dependently reduced | NHEJ activity ([2]; MCF7, 10 µM twice a day for three days): significantly reduced | NHEJ activity with ectopic FASN over-expression ([2]; MCF7 cells over-expressing ectopic FASN): rescued NHEJ activity | NHEJ activity [3]: significantly reduced | Homologous recombination activity [4]: did not change | γ-H2AX level (γ-H2AX in MCF7 cells; MCF7, lansoprazole alone): increased γ-H2AX level in a dose-dependent manner | γ-H2AX level at 4 hrs post-IR versus 1 hr (γ-H2AX in MCF7 cells; MCF7, lansoprazole pre-treatment, 5 Gy IR): no reduction | Doxorubicin-induced γ-H2AX production (γ-H2AX in MCF7 cells; MCF7, lansoprazole with doxorubicin): synergistically increased | Lansoprazole-induced γ-H2AX increase with ectopic FASN over-expression (γ-H2AX in MCF7 cells; over-expressing ectopic FASN): ablated | γ-H2AX level ([5]; MDA-MB-468, lansoprazole alone): increased γ-H2AX level in a dose-dependent manner | γ-H2AX level at 4 hrs post-IR versus 1 hr ([5]; MDA-MB-468, lansoprazole pre-treatment, 5 Gy IR): no reduction | Doxorubicin-induced γ-H2AX production ([5]; MDA-MB-468, lansoprazole with doxorubicin): synergistically increased | Apoptosis (MCF7 cells [6]): dose-dependently induced apoptosis | Apoptosis (MDA-MB-468 cells [7]; MDA-MB-468): dose-dependently induced apoptosis | Cell cycle arrest phase (MDA-MB-468 cells [7]; MDA-MB-468, dose-dependent): S phase | Combination index (MCF7 cells [8]): < 1.0 | Combination index (MDA-MB-468 cells [9]): < 1.0 | Sensitization to IR treatment (MCF7 cells [10]): sensitized | Sensitization to IR treatment (MDA-MB-468 cells [11]): sensitized | Overall survival, univariate HR (breast cancer patients; [13]): 0.20

COc1ccc2[nH]c([S+]([O-])Cc3ncc(C)c(OC)c3C)nc2c1 (centres unmarked) [omeprazole]
Overall survival, multivariant HR (breast cancer patients; 40 mg users vs non-PPI users): 0.12 | Overall survival, univariant HR (breast cancer patients; 40 mg users vs non-PPI users): 0.21 | Overall survival, multivariant HR (breast cancer patients; [14]): 0.28 | Overall survival, univariant HR (breast cancer patients; [14]): 0.33 | Overall survival, univariate HR (breast cancer patients; [13]): 0.33 | FASN activities in tumors (TNBC patients): inhibited | Toxicity (TNBC patients): without adding toxicity | pCR rate (TNBC patients): ~ 74%

COc1ccnc(C[S+]([O-])c2nc3ccc(OC(F)F)cc3[nH]2)c1OC (centres unmarked) [pantoprazole]
Overall survival, univariate HR (breast cancer patients; [13]): 0.43

CC12C[C@@]34C=CC(=O)[C@@](C)(CCC(=O)Nc5c(O)ccc(C(=O)O)c5O)C3[C@H](CC1C4)O2 (some centres unmarked) [platensimycin]
Insulin sensitivity (db/+ and db/db mice; db/+ mice fed with high-fructose diet): improved insulin sensitivity | Ambient glucose levels (db/+ and db/db mice; db/db mice): reduced ambient glucose levels
